From the NIST ThermoML archive (doi:10.1016/j.fluid.2011.01.027)

CCCCCCn1cc[n+](C)c1.O=S(=O)([O-])C(F)(F)F [1-hexyl-3-methylimidazolium trifluoromethanesulfonate]
surface tension liquid-gas [mN/m]
Details | Wilhelmy plate method | de Nouy ring method
293.98 K | 32.58 | –
294.03 K | – | 32.64
298.11 K | – | 32.37
298.13 K | 32.37 | –
303.23 K | 32.17 | –
303.24 K | – | 32.19
308.28 K | 31.99 | –
308.32 K | – | 32.01
313.29 K | 31.8 | –
313.3 K | – | 31.86
318.29 K | – | 31.66
318.3 K | 31.64 | –
323.49 K | – | 31.42
323.5 K | 31.45 | –
328.04 K | 31.35 | –
328.12 K | – | 31.25
333.26 K | 31.09 | –
333.32 K | – | 30.89
337.85 K | 30.92 | –
337.88 K | – | 30.81
342.94 K | 30.72 | –
343.09 K | – | 30.5
347.58 K | 30.55 | –
347.59 K | – | 30.38
355.44 K | 30.28 | 30.06

CCn1cc[n+](C)c1.O=S(=O)([O-])C(F)(F)F [1-ethyl-3-methylimidazolium trifluoromethanesulfonate]
Details | surface tension liquid-gas [mN/m]
268.29 K, Wilhelmy plate method | 41.39
268.36 K, du Nouy ring method | 41.4
272.08 K, Wilhelmy plate method | 41.28
272.13 K, du Nouy ring method | 41.3
276.54 K, Wilhelmy plate method | 41.1
276.65 K, du Nouy ring method | 41.16
281 K, Wilhelmy plate method | 40.96
281.05 K, du Nouy ring method | 41.1
287.58 K, du Nouy ring method | 40.79
287.63 K, Wilhelmy plate method | 40.69
293 K, du Nouy ring method | 40.74
293.01 K, Wilhelmy plate method | 40.52
298.01 K, Wilhelmy plate method | 40.43
298.04 K, du Nouy ring method | 40.39
303.18 K, du Nouy ring method | 40.18
303.2 K, Wilhelmy plate method | 40.24
308.2 K, Wilhelmy plate method | 40.07
308.31 K, du Nouy ring method | 40.01
313.27 K, Wilhelmy plate method | 39.93
313.31 K, du Nouy ring method | 39.75
318.36 K, Wilhelmy plate method | 39.68
318.39 K, du Nouy ring method | 39.83
323.33 K, Wilhelmy plate method | 39.5
323.38 K, du Nouy ring method | 39.38
328.2 K, du Nouy ring method | 39.44
333.07 K, Wilhelmy plate method | 39.16
333.12 K, du Nouy ring method | 39.24
338.1 K, Wilhelmy plate method | 39.03
338.15 K, du Nouy ring method | 39.02
343.14 K, Wilhelmy plate method | 38.85
343.21 K, du Nouy ring method | 38.85
348.38 K, Wilhelmy plate method | 38.65
348.53 K, du Nouy ring method | 38.62
356.09 K, Wilhelmy plate method | 38.37
356.28 K, du Nouy ring method | 38.31

CCn1cc[n+](C)c1.F[B-](F)(F)F [1-ethyl-3-methylimidazolium tetrafluoroborate]
surface tension liquid-gas [mN/m]
Details | Wilhelmy plate method | du Nouy ring method
288.05 K | – | 54.61
288.06 K | 54.61 | –
292.92 K | 54.28 | –
292.93 K | – | 54.55
298.1 K | 53.97 | –
298.12 K | – | 54.01
303.12 K | 53.65 | –
303.13 K | – | 53.96
308.27 K | 53.34 | 53.77
313.33 K | 52.98 | –
313.43 K | – | 53.05
318.3 K | 52.7 | –
318.35 K | – | 52.86
323.5 K | 52.39 | –
323.53 K | – | 52.54
328.4 K | 52.05 | –
328.54 K | – | 52.18
333.32 K | 51.74 | –
333.48 K | – | 51.87
338.38 K | – | 51.48
338.39 K | 51.4 | –
343.18 K | 51.11 | –
343.32 K | – | 51.11
348.7 K | 50.76 | –
348.78 K | – | 50.74
355.91 K | – | 50.26
355.99 K | 50.27 | –
